For one assay, the target named is human recombinant CTSC (Homo sapiens (Human), UniProt P53634). Nature of the assay: CTSC inhibition assay (in vitro), fluorescent substrate GF-AFC. Type of assay: biochemical. The settings on record: 30 μmol/L GF-AFC, pH 5.0, 25° C. The method, boiled down:
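Recombinant human CTSC pre-activated with cathepsin L (18° C, 30 min), then preincubated with compound 30 min at 25° C in pH 5.0 MES buffer with 5 mmol/L DTT (0.66 ng/mL CTSC, 0.15% DMSO). Cleavage of 30 μmol/L GF-AFC read after 1 h at 25° C (ex 390/em 505 nm); IC50 by 4-parameter fit.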

A further assay has as its target CTSC in U937 cells (Homo sapiens (Human), UniProt P53634). Nature of the assay: Intracellular CTSC inhibition assay (in vitro), LLOMe-induced cell death in U937 cells. Type of assay: cell-based. The note with it: 3 hours culture, CellTiter-Glo. The procedure, abridged: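 U937 cells in RPMI-1640 with 10% FBS were preincubated 30 min with compound ([…], 3-fold dilutions). A 300 μmol/L LLOMe solution was then added, which drives CTSC-dependent cell death, and cells were cultured 3 h. Viability read by CellTiter-Glo luminescence; IC50 from 4-parameter fit.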
For orientation: In ATP-based viability assays light output follows the ATP content of the culture.

As a reminder, the IC50 is the concentration that gives 50% inhibition.

Chain of human recombinant CTSC (P53634 25-134): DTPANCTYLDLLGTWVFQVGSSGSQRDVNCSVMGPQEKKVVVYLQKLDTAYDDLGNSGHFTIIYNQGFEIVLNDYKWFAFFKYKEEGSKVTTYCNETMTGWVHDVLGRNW
Chain of human recombinant CTSC (P53634 231-394): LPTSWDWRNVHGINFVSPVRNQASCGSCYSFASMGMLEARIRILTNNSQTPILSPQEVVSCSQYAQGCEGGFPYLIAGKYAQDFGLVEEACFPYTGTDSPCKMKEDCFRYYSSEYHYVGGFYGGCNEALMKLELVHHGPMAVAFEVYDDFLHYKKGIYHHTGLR
Chain of human recombinant CTSC (P53634 395-463): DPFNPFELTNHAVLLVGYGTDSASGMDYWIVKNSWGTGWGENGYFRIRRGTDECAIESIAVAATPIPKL
Chain of CTSC in U937 cells (P53634 25-463): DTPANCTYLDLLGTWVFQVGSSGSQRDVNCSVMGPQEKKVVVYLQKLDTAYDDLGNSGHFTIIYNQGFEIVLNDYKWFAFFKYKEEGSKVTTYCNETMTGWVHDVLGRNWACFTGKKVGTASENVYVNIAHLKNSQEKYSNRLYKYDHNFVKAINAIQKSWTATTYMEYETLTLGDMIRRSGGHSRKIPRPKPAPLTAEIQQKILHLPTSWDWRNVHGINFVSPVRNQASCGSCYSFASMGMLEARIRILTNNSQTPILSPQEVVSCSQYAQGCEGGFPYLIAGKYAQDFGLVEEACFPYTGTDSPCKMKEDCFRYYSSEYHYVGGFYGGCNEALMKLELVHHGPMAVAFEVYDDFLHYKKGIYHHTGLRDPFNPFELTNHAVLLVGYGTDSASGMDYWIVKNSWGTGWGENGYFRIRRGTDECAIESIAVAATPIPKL

`Cc1ccc(C2(C(=O)NCC3CCC(F)(F)CC3)CCN(C(=O)[C@@H]3CC[C@@]4(CCO4)CN3)CC2)cc1` [Example 84]: the IC50 on human recombinant CTSC was found to be 1.25 nM; against CTSC in U937 cells, 1.92 nM.
For `O=C([C@@H]1CC[C@@]2(CCO2)CN1)N1CCC(C(=O)NCC2CCC(F)(F)CC2)(C(F)(F)F)CC1` [Example 85], in that order: 2.51 nM and 4.12 nM.
The like results for `CC(C)C1(c2noc(C3CCC(F)(F)CC3)n2)CCN(C(=O)[C@@H]2CC[C@@]3(CCO3)CN2)CC1` [Example 86] were, in that order, 1.43 nM and 1.06 nM.
The like results for `O=C([C@@H]1CC[C@@]2(CCO2)CN1)N1CCC(c2ccc(F)cc2)(c2nnc(C3CCC(F)(F)CC3)o2)CC1` [Example 87] were, in that order, 3.54 nM and 4.02 nM.
Take `O=C([C@@H]1C[C@@H](O)C2(CCC2)CN1)N1CCC(c2nnn(-c3ccc(F)cc3)n2)CC1` [Example 89, (4-(2-(4-Fluorophenyl)-2H-tetrazol-5-yl)piperidin-1-yl)((7S,9R)-9-hydroxy-6-azaspiro[3.5]nonan-7-yl)methanone]: the IC50 was 1.45 nM on human recombinant CTSC and 0.6 nM at CTSC in U937 cells.
For `CC1(C)CN[C@H](C(=O)N2CCC(c3nnn(-c4ccc(F)cc4)n3)CC2)C[C@H]1O` [Example 90, (4-(2-(4-Fluorophenyl)-2H-tetrazol-5-yl)piperidin-1-yl)((2S,4R)-4-hydroxy-5,5-dimethylpiperidin-2-yl)methanone], in that order: 4.34 nM and 0.54 nM.
The like results for `O=C([C@@H]1C[C@@H](O)C2(CCC2)CN1)N1CCC(c2ccnc(N3CCC(F)(F)CC3)c2)CC1` [Example 91] were, in that order, 0.84 nM and 0.54 nM.
With `O=C([C@@H]1C[C@@H](O)C2(CCC2)CN1)N1CCC(c2cnc(N3CCC(F)(F)CC3)s2)CC1` [Example 92], the half-maximal inhibitory concentration (IC50) on human recombinant CTSC amounted to 2.76 nM; against CTSC in U937 cells it was 3.62 nM.
For the compound `O=C([C@@H]1C[C@@H](O)C2(CCC2)CN1)N1CCC(c2cnn(-c3ccc(F)cc3)c2)CC1` [Example 93], the IC50 on human recombinant CTSC is 3.92 nM; against CTSC in U937 cells, 0.77 nM.
In the case of `O=C([C@@H]1C[C@@H](O)C2(CCC2)CN1)N1CCC(c2nccc(N3CCC(F)(F)CC3)n2)CC1` [Example 94], the IC50 on human recombinant CTSC was 0.37 nM; against CTSC in U937 cells it was 3.86 nM.
The like results for `O=C([C@@H]1C[C@@H](O)C2(CCC2)CN1)N1CCC(c2nnn(-c3ccc(F)cc3)n2)(C(F)(F)F)CC1` [Example 95] were, in that order, 3.02 nM and 0.2 nM.
Turning to `O=C([C@@H]1C[C@@H](O)C2(CCC2)CN1)N1CCC(c2nnn(-c3ccc(F)c(F)c3)n2)CC1` [Example 96], the values for the IC50 at human recombinant CTSC and at CTSC in U937 cells were 1.89 nM and 0.37 nM, respectively.
The like results for `O=C([C@@H]1C[C@@H](O)C2(CCC2)CN1)N1CCC(c2nnn(C3CCC(F)(F)CC3)n2)CC1` [Example 97] were, in that order, 1.79 nM and 3.26 nM.
In the case of `O=C([C@@H]1C[C@@H](O)C2(CCC2)CN1)N1CCC(c2cn(-c3ccc(F)cc3)nn2)CC1` [Example 98], the figures for the IC50 at human recombinant CTSC and at CTSC in U937 cells were 4.15 nM and 3.8 nM, respectively.
For `O=C([C@@H]1C[C@@H](O)C2(CCC2)CN1)N1CCC(c2nccc(-n3cc(F)cn3)n2)CC1` [Example 99], in that order: 4.15 nM and 1.12 nM.
For `COc1cccc(-n2nnc(C3CCN(C(=O)[C@@H]4C[C@@H](O)C5(CCC5)CN4)CC3)n2)c1` [Example 100], in that order: 5.4 nM and 3.48 nM.
Regarding `O=C([C@@H]1C[C@@H](O)C2(CCC2)CN1)N1CCC(c2nccc(-c3ccc(F)cc3)n2)CC1` [Example 101], the values for the IC50 on human recombinant CTSC and at CTSC in U937 cells were 1.93 nM and 0.96 nM, respectively.
The like results for `O=C([C@@H]1C[C@@H](O)C2(CCC2)CN1)N1CCC(c2nnn(Cc3ccccc3)n2)CC1` [Example 102] were, in that order, 9.48 nM and 9.46 nM.
The like results for `CC1(C)CN[C@H](C(=O)N2CCC(c3nnn(-c4ccc(F)c(F)c4)n3)CC2)C[C@H]1O` [Example 103] were, in that order, 2.41 nM and 0.5 nM.
`O=C([C@@H]1C[C@@H](O)C2(CCC2)CN1)N1CCC(n2nnc(-c3ccc(F)cc3F)n2)CC1` [Example 104]: the values for the IC50 on human recombinant CTSC and against CTSC in U937 cells were 1.46 nM and 0.61 nM, respectively.
The like results for `O=C([C@@H]1C[C@@H](O)C2(CCC2)CN1)N1CCC(n2nnc(-c3ccc(F)cn3)n2)CC1` [Example 105] were, in that order, 2.53 nM and 3.97 nM.
